Measured values published in patent publication US7144551B2, “Mold remediation system and method” (DH Technologies, L.L.P., priority 2002, dated 2006).
Where two headings read alike, the source gives them in different places.

How the values were obtained:
germs on surfaces [1] = assay: Label-recommended hypochlorite concentration for sanitization of surfaces (Ultra Clorox label)
[2] = cited from earlier work
mold and mildew stain = assay: Label-recommended hypochlorite concentration for mold and mildew stain removal (Ultra Chlorox label)
Experimental: (§1) First, the recommended concentration of HOCl for sanitization of surfaces according to the prior art is calculated. Referring to the label of Ultra Chlorox® brand of sodium hypochlorite and noticing that a recommended concentration of NaOCl for mold and mildew stain removal is 3⁄4 cup Ultra Chlorox® plus one gallon of water. Ultra Chlorox® contains 6.00% NaOCl per the label. […] For the mold remediation studies, 5 mL of 6.0% NaOCl was mixed with 50 mL of water, acidified and was placed in a container with a volume of 1400 cc. • 5 mL of 6.0% NaOCl=0.30 g NaOCl • Assuming all of the NaOCl is converted to HOCl: • 0.30 g NaOCl=(0.30 g NaOCl)(52.5 g HOCl)/(74.5 g NaOCl)=0.21 g HOCl This quantity of HOCl is diluted to 1400 cc. Therefore, the maximum concentration of HOCl gas in the container studied is: • 0.21 g HOCl/1400 cc=15×10^-5 g HOCl/cc

mold and mold stains = assay: Mold kill and mold stain removal study: vapor from acidified 6.0% NaOCl diluted in water, in a 1400 cc container; format: cell-based; details: 5 mL 6.0% NaOCl + 50 mL water, in 1400 cc
Experimental: as §1, with “HOCl/cc […]” for “HOCl/cc”

mold = assay: Mold remediation study: vapor from acidified 600 ppm NaOCl in a closed 1400 cc container; format: cell-based; details: 10 ml acidified 600 ppm NaOCl in 1400 cc; all NaOCl assumed converted to HOCl
Experimental: For purposes of the calculation which now follows, it is assumed that essentially all of the NaOCl is converted to HOCl when acidified, which is a valid assumption given the equilibrium of the reaction. For mold remediation studies, 10 ml of acidified 600 ppm NaOCl was placed in a container with a volume of 1400 cc. • 10 ml of 600 ppm NaOCl=0.00600 g NaOCl/10 ml • 0.00600 g NaOCl=(0.00600 g NaOCl)(52.5 g HOCl)/(74.5 g NaOCl)=0.00423 g HOCl This quantity is diluted to 1400 cc. Therefore, the maximum concentration of HOCl gas in the container studied is: • 0.00423 g/1400 cc=3.02×10^−6 g HOCl/cc. […] Thus, we have discovered that by converting the NaOCl to HOCl and using it in the form of a gas the concentration needed for mold cidal activity is at least about 47 times less than is recommended for sanitation in the liquid form of hypochlorite bleach! We next investigated the removal of mold stain from surfaces.

mold colonies = assay: Cidal action of controlled hypochlorous acid vapor on mold colonies (general statements); format: cell-based
germs on surfaces [3] = details: cited from earlier work

Compound: OCl [hypochlorous acid]
- equivalent concentration of HOCl necessary to sanitize per manufacturer recommendation (germs on surfaces [1]; calculated from 200 ppm NaOCl, liquid): 1.41×10^−4 g HOCL/cc
- % as HOCl ([2]; pH 5.0): 100%
- % as HOCl ([2]; pH 6.0): 96%
- % as HOCl ([2]; pH 7.0): 72%
- % as HOCl ([2]; pH 7.2): 66%
- % as HOCl ([2]; pH 7.5): 48%
- % as HOCl ([2]; pH 7.8): 33%
- % as HOCl ([2]; pH 8.0): 22%
- Conc. of HOCl equivalent to the recommended stain removal solution (mold and mildew stain; all NaOCl assumed converted to HOCl): 0.0019 g HOCl/cc
- maximum concentration of HOCl gas in the container found to kill mold and remove stains (mold and mold stains): 15×10^−5 g HOCl/cc
- maximum concentration of HOCl gas in the container found to kill mold (mold): 3.02×10^−6 g HOCl/cc
- time to completely eradicate even the most refractory of mold colonies (mold colonies; hypochlorous acid vapors generated and controlled as described): ≤ 24 h
- hypochlorous acid concentration in the air that must be exceeded for effective cidal action on mold-contaminated materials (mold colonies; in air): exceed 3×10^−7 grams/cubic centimeter

Compound: OCl [sodium hypochlorite, reference compound]
- recommended concentration for killing germs on surfaces / sanitation (germs on surfaces [3]): 200 ppm
- recommended sanitizing concentration expressed by volume (germs on surfaces [1]; corresponds to 200 ppm aqueous solution): 200×10^−6 grams/cc
- NaOCl conc. recommended by Ultra Chlorox for mold and mildew stain removal (mold and mildew stain; ¾ cup Ultra Chlorox (6.00% NaOCl) plus one gallon of water): 0.0027 g/cc

Compound: hypochlorite ion [OCl—]
- % as OCl— ([2]; pH 5.0): 0%
- % as OCl— ([2]; pH 6.0): 4%
- % as OCl— ([2]; pH 7.0): 28%
- % as OCl— ([2]; pH 7.2): 34%
- % as OCl— ([2]; pH 7.5): 52%
- % as OCl— ([2]; pH 7.8): 67%
- % as OCl— ([2]; pH 8.0): 78%
